Source: PubChem BioAssay (NCI)
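Assay format: 96-well plates, 48-hour exposure. GI50 marks 50% less growth. TGI is the concentration that stops growth completely.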

Legend:
Experiment in all cases: NCI-60 cell line screen, 48 h; in the data active = GI50 below about 0.43 µM; inactive = the rest
[1] = system: 786-0 renal
[2] = system: A498 renal
[3] = system: A549 NSCLC
[4] = system: ACHN renal
[5] = system: CAKI-1 renal
[6] = system: CCRF-CEM leukemia
[7] = system: COLO 205 colon
[8] = system: DU-145 prostate
[9] = system: HCC-2998 colon
[10] = system: HCT-116 colon
[11] = system: HCT-15 colon
[12] = system: HL-60(TB) leukemia
[13] = system: HOP-62 NSCLC
[14] = system: HOP-92 NSCLC
[15] = system: HS 578T breast
[16] = system: HT29 colon
[17] = system: IGROV1 ovarian
[18] = system: K-562 leukemia
[19] = system: KM12 colon
[20] = system: LOX IMVI melanoma
[21] = system: MALME-3M melanoma
[22] = system: MCF7 breast
[23] = system: MDA-MB-231 breast
[24] = system: MOLT-4 leukemia
[25] = system: NCI-H226 lung
[26] = system: NCI-H23 lung
[27] = system: NCI-H460 lung
[28] = system: NCI/ADR-RES ovarian
[29] = system: OVCAR-3 ovarian
[30] = system: OVCAR-4 ovarian
[31] = system: OVCAR-5 ovarian
[32] = system: OVCAR-8 ovarian
[33] = system: PC-3 prostate
[34] = system: RPMI-8226 leukemia
[35] = system: SF-268 CNS
[36] = system: SF-295 CNS
[37] = system: SK-MEL-2 melanoma
[38] = system: SK-MEL-28 melanoma
[39] = system: SK-MEL-5 melanoma
[40] = system: SK-OV-3 ovarian
[41] = system: SN12C renal
[42] = system: SNB-19 CNS
[43] = system: SNB-75 CNS
[44] = system: SR leukemia
[45] = system: SW-620 colon
[46] = system: TK-10 renal
[47] = system: U251 CNS
[48] = system: UACC-257 melanoma
[49] = system: UACC-62 melanoma
[50] = system: UO-31 renal
[51] = system: EKVX NSCLC
[52] = system: NCI-H522 lung
[53] = system: SF-539 CNS
[54] = system: M14 melanoma
[55] = system: MDA-MB-435
[56] = system: T-47D breast

COc1cc(-c2n[nH]nc2-c2ccc3c(c2)OCCO3)cc(OC)c1OC
11000 nM: TGI [34]
21900 nM: TGI [43]
active: GI50 [1] < 10 nM | GI50 [2] 10.4 nM | GI50 [3] 22.9 nM | GI50 [4] < 10 nM | GI50 [5] < 10 nM | GI50 [6] 33.7 nM | GI50 [7] 26.7 nM | GI50 [8] 25 nM | GI50 [9] 39.4 nM | GI50 [10] < 10 nM | GI50 [11] < 10 nM | GI50 [12] 18.9 nM | GI50 [13] 18.2 nM | GI50 [14] < 10 nM | GI50 [16] 25.3 nM | GI50 [17] 33.2 nM | GI50 [18] < 10 nM | GI50 [19] < 10 nM | GI50 [20] 17.5 nM | GI50 [22] < 10 nM | GI50 [23] 44.4 nM | GI50 [24] 39.9 nM | GI50 [25] 60.9 nM | GI50 [26] 48 nM | GI50 [27] 24.6 nM | GI50 [28] < 10 nM | GI50 [29] < 10 nM | GI50 [30] 33.6 nM | GI50 [32] 41.8 nM | GI50 [33] 18.4 nM | GI50 [34] 32.5 nM | GI50 [35] 68.5 nM | GI50 [36] < 10 nM | GI50 [37] < 10 nM | GI50 [39] < 10 nM | GI50 [40] < 10 nM | GI50 [41] 133 nM | GI50 [42] 29.4 nM | GI50 [43] < 10 nM | GI50 [44] < 10 nM | GI50 [45] < 10 nM | GI50 [47] 20.1 nM | GI50 [50] < 10 nM
20000 nM: TGI [27]
64100 nM: TGI [25]
543 nM: TGI [14]
21200 nM: TGI [49]
34800 nM: TGI [38]
82.4 nM: TGI [12]
166 nM: TGI [39]
57100 nM: TGI [30]
34600 nM: TGI [46]
18100 nM: TGI [37]
22700 nM: TGI [47]
39400 nM: TGI [33]
41700 nM: TGI [26]
35000 nM: TGI [32]
30300 nM: TGI [17]
77.4 nM: TGI [7]
37900 nM: TGI [22]
37800 nM: TGI [20]
12700 nM: TGI [40]
23100 nM: TGI [48]
> 100000 nM: TGI [4] | TGI [5] | TGI [6] | TGI [8] | TGI [11] | TGI [18] | TGI [23] | TGI [31] | TGI [35] | TGI [41] | TGI [42] | TGI [45]
13500 nM: TGI [1]
23900 nM: TGI [44]
12300 nM: TGI [16]
17500 nM: TGI [9]
19300 nM: TGI [13]
11600 nM: TGI [24]
42800 nM: TGI [36]
811 nM: TGI [10]
11200 nM: TGI [19]
64200 nM: TGI [15]
69700 nM: TGI [28]
inactive: GI50 [15] 668 nM | GI50 [21] 17600 nM | GI50 [31] 2180 nM | GI50 [38] 2880 nM | GI50 [46] 4570 nM | GI50 [48] 3730 nM | GI50 [49] 2280 nM
72300 nM: TGI [21]
22600 nM: TGI [3]
1500 nM: TGI [2]
24600 nM: TGI [50]

O=C(CCCn1cnc([N+](=O)[O-])n1)NCCCn1ccnc1[N+](=O)[O-]
> 100000 nM: TGI [1] | TGI [2] | TGI [3] | TGI [4] | TGI [6] | TGI [51] | TGI [9] | TGI [10] | TGI [11] | TGI [12] | TGI [13] | TGI [15] | TGI [16] | TGI [18] | TGI [19] | TGI [21] | TGI [22] | TGI [24] | TGI [25] | TGI [26] | TGI [27] | TGI [52] | TGI [29] | TGI [31] | TGI [32] | TGI [33] | TGI [34] | TGI [35] | TGI [36] | TGI [53] | TGI [37] | TGI [38] | TGI [39] | TGI [41] | TGI [43] | TGI [44] | TGI [45] | TGI [46] | TGI [47] | TGI [48]

COc1cc(C(=O)/C=C/c2ccc(OCCCCCC[P+](c3ccccc3)(c3ccccc3)c3ccccc3)cc2)cc(OC)c1OC
3090 nM: TGI [6]
> 100000 nM: TGI [28]
1970 nM: TGI [2]
active: GI50 [12] 227 nM | GI50 [19] 355 nM | GI50 [55] 337 nM | GI50 [52] 342 nM | GI50 [29] 347 nM | GI50 [30] 374 nM | GI50 [34] 214 nM | GI50 [42] 341 nM | GI50 [45] 358 nM | GI50 [56] 261 nM | GI50 [48] 298 nM
2780 nM: TGI [50]
3130 nM: TGI [11]
1770 nM: TGI [56]
643 nM: TGI [12]
2810 nM: TGI [46]
inactive: GI50 [2] 710 nM | GI50 [4] 1500 nM | GI50 [5] 1640 nM | GI50 [6] 557 nM | GI50 [8] 698 nM | GI50 [11] 1600 nM | GI50 [54] 971 nM | GI50 [24] 559 nM | GI50 [28] 3580 nM | GI50 [31] 754 nM | GI50 [40] 1320 nM | GI50 [46] 1340 nM | GI50 [50] 1460 nM
1160 nM: TGI [29]
2700 nM: TGI [40]
1310 nM: TGI [19] | TGI [42]
1260 nM: TGI [48]
2820 nM: TGI [4]
3000 nM: TGI [24]
1140 nM: TGI [55]
3180 nM: TGI [54]
703 nM: TGI [34]
2990 nM: TGI [5]
2090 nM: TGI [52]
1480 nM: TGI [30]
1960 nM: TGI [8]
2100 nM: TGI [31]
1360 nM: TGI [45]

O=c1c2ccccc2nc2n1CCc1c-2[nH]c2ccc(Br)cc12
> 100000 nM: TGI [1] | TGI [2] | TGI [3] | TGI [6] | TGI [8] | TGI [51] | TGI [10] | TGI [13] | TGI [14] | TGI [15] | TGI [16] | TGI [17] | TGI [18] | TGI [20] | TGI [54] | TGI [21] | TGI [24] | TGI [25] | TGI [26] | TGI [27] | TGI [28] | TGI [29] | TGI [30] | TGI [31] | TGI [32] | TGI [34] | TGI [36] | TGI [38] | TGI [39] | TGI [42] | TGI [44] | TGI [45] | TGI [48]
